# Assay results taken from ChEMBL document CHEMBL1147207 (Eur J Med Chem, 2007).
# Calls of active or inactive are those of the source. The calls are words filed in the database; no cut-off is given here.
# Key:
# Oxytocin receptor [1] = target: T1, Oxytocin receptor (Rattus norvegicus, UniProt P70536); experiment: Antagonist activity in rat uterus by uterotonic assay; format: functional, tissue-based; settings: read-out: pA2 (converted)
# T1 sequence (P70536 whole entry): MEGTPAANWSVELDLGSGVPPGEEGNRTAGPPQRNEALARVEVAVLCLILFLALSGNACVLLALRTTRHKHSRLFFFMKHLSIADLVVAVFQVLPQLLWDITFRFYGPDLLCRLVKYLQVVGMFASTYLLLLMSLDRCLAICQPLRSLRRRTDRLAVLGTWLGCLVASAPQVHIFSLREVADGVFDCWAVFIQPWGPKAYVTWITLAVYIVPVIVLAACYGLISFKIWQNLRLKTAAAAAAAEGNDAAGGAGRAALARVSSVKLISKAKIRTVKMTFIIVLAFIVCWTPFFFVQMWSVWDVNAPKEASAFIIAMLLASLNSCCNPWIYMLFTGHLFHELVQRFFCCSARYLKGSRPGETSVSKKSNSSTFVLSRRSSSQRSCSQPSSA
# [2] = target: T2, Oxytocin receptor (Rattus norvegicus) (UniProt P70536); experiment: Agonist activity in rat uterus by uterotonic assay; format: functional, tissue-based
# T2 sequence (whole entry): T1 sequence (P70536 whole entry)
# Oxytocin receptor [3] = target: T3, Oxytocin receptor (Homo sapiens, UniProt P30559); experiment: Displacement of [3H]OT from human OT receptor expressed in HEK cells; format: cell-based, HEK293
# T3 sequence (P30559 whole entry): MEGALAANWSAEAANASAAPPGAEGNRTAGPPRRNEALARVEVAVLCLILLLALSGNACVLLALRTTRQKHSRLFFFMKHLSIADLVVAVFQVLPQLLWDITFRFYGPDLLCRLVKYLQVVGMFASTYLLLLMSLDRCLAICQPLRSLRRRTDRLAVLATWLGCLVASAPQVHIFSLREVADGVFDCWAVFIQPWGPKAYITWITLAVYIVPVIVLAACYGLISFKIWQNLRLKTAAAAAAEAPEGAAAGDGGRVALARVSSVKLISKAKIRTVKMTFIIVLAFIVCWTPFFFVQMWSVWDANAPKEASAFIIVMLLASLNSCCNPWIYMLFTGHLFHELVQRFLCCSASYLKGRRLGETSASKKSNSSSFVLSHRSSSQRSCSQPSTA
# [4] = target: Vasopressin V1a receptor (Rattus norvegicus) (UniProt P30560); experiment: Antagonist activity in phenoxybenzamine-treated rat by Pressor assay; settings: read-out: pA2 (converted)
# [5] = target: Vasopressin V1a receptor (Rattus norvegicus) (UniProt P30560); experiment: Agonist activity in phenoxybenzamine-treated rat up to 0.16 mg/kg by Pressor assay
# Chain of Vasopressin V1a receptor (Rattus norvegicus) (P30560 whole entry, looked up): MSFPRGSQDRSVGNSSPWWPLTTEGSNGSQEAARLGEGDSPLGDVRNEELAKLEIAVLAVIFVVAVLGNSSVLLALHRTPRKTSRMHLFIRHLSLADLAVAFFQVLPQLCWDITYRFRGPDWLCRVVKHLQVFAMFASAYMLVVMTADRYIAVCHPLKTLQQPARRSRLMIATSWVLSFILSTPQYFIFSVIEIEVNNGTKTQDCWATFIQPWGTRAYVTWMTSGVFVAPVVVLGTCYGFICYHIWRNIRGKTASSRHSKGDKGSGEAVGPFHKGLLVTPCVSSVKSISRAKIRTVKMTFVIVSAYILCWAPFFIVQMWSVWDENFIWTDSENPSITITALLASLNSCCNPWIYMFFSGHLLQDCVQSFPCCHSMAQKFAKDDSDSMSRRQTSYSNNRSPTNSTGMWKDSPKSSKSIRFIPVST
Kb (Oxytocin receptor [1]) [µM],Activity [2] [IU/mg],IC50 (Oxytocin receptor [3]) [µM],Kb [4] [µM],Activity [5],SMILES
0.1,0,0.73,> 1,inactive,CC[C@H](C)[C@@H]1NC(=O)[C@H](Cc2ccc(O)cc2)NC(=O)[C@@H](N)CSSC[C@@H](C(=O)N2Cc3ccccc3C[C@@H]2C(=O)N[C@@H](CC(C)C)C(=O)NCC(N)=O)NC(=O)[C@H](CC(N)=O)NC(=O)[C@H](CCC(N)=O)NC1=O
0.0158,0,0.176,> 1,inactive,CCOc1ccc(CC2NC(=O)CCSSC[C@@H](C(=O)N3Cc4ccccc4C[C@H]3C(=O)N[C@@H](CC(C)C)C(=O)NCC(N)=O)NC(=O)[C@H](CC(N)=O)NC(=O)[C@H](CCC(N)=O)NC(=O)[C@H]([C@@H](C)CC)NC2=O)cc1 (stereo in doubt)
0.0355,3.5,0.103,> 1,inactive,CC[C@H](C)[C@@H]1NC(=O)[C@H](Cc2ccc(O)cc2)NC(=O)CCSSC[C@@H](C(=O)N2Cc3ccccc3C[C@H]2C(=O)N[C@@H](CC(C)C)C(=O)NCC(N)=O)NC(=O)[C@H](CC(N)=O)NC(=O)[C@H](CCC(N)=O)NC1=O
